Results taken from PMC3853768 (Molecular Pain, 2013).
“Also recorded” adds a separate entry of the source.

Legend:
R-type channels (Cav2.3) = assay type: cell-based, mouse
residual ICa = assay type: cell-based, mouse

Row | Compound | effect on ICa of R-type blocker (R-type channels (Cav2.3)) | block of residual ICa (residual ICa)
1 | SNX-482: blocker of R-type channels (Cav2.3), from Peptide Institute (GVDKAGCRYMFGGCSVNDDCCPRLGCHSLFSYCAWDLTFSD; UniProt P56854 1-41, looked up) | lack of effect; also recorded: without effect | –
2 | [Cl][Cd][Cl] [CdCl2] | – | residual ICa was blocked
